Laboratory results taken from PubChem BioAssay AID1508612.

Assay: passive permeability, PAMPA, ADME assay (AID 1508612)
Conditions: pH 7.4, 30.0 min, 50.0 µM

SMILES	Papp [×10⁻⁶ cm/s]
CC(=O)c1c(C)[nH]c(C(=O)Nc2cccc(S(=O)(=O)N3CCCCC3)c2)c1C	> 1000
Cc1nc2c(-c3ccccc3)cnn2c(N)c1-c1ccccc1	207
CCc1ccc(-n2nnc(-c3nsc(NC(=O)c4ccccc4Cl)n3)c2C)cc1	615
CNc1ccc(Br)cc(C(=O)/C=C/c2ccc(OC)cc2OC)c1=O	143
O=C(Nc1ccc(N2CCC(N3CCCCC3)CC2)c(C(=O)O)c1)c1ccc(Br)cc1	< 1
COc1ccc(-n2nc(C3CCCN(C(=O)c4ccccc4F)C3)[nH]c2=O)cc1 (stereo unspecified)	476
Cc1ccc(S(=O)(=O)n2cc(C(=O)Nc3nc(-c4ccccc4)cs3)c3ccccc32)cc1	3.4
Fc1cc(Nc2nc(-c3ccncc3)nc3ccccc23)ccc1-c1ccnc(C(F)(F)F)c1	11.6
O=S(=O)(Nc1cccc2ccncc12)c1ccc(NCc2cccc(Cl)c2O)cc1	> 1000
CC(=O)c1ccc(-c2csc(N3CCC(C(N)=O)CC3)n2)cc1	300
C[C@@]1(C(=O)Nc2ccc(F)nc2)CCCN1c1nc(Nc2cc(C3CC3)[nH]n2)c2cccn2n1	780
Nc1nc2c(s1)C(c1ccccc1)CC(=O)N2 (stereo unspecified)	19.3
CCCCNC(=O)CN1CCN(c2ncc(NC(=O)c3ccc(Cl)cc3)cc2C(=O)O)CC1	< 1
COC(=O)C1=C(C)NC(=O)CC1C(=O)Nc1ccc(Cl)cc1 (stereo unspecified)	126
Cc1ccnc(NC(=S)N2CCC(c3cccc(C(F)(F)F)c3)CC2)c1	672
Nc1nc(Nc2ccc(S(N)(=O)=O)cc2)n(C(=S)Nc2c(F)cccc2F)n1	6.07
O=C1CCc2ccc(OCCCCN3CCN(c4cccc(Cl)c4Cl)CC3)cc2N1	> 1000
O=C(NCCc1ccccc1)C1CCN(c2nc(-c3ccc(Br)cc3)cs2)CC1	< 1
Cc1cn2c(N)c(Cl)cc(C(=O)NCC3CCN(CC(C)C)CC3)c2n1	606
COc1c(Cl)cc2c([nH]c3cnccc32)c1NC(=O)c1cccnc1C	440
COCCNC(=O)[C@H]1C[C@H](Oc2ccccc2)CN1Cc1ccc2[nH]ccc2c1	961
O=C1Nc2cc(Cl)ccc2Nc2cscc21	478

SMILES	Papp [×10⁻⁶ cm/s]
CC(C)NC(=O)c1nc(-c2ccc(Cl)nc2)c2cnccn12	723
CCc1ccc2oc(NC3=NC(c4[nH]ncc4Cl)C4=C(CCCC4=O)N3)nc2c1 (stereo unspecified)	916
CC(C)c1nc2oc3c(NCCN(C)C)ncnc3c2c2c1COC(C)(C)C2	> 1000
Cc1cccc(N2CCN(C(=O)c3ccc4c(c3)C(O)CCCCCN4C)CC2)c1 (stereo unspecified)	< 1
CCC(=O)NC(c1cccs1)c1cc([N+](=O)[O-])c2cccnc2c1O (stereo unspecified)	36.3
Cc1csc2nc(-c3cccc(NC(=O)c4cccc(F)c4)c3)cn12	> 1000
CC(=O)Nc1ncc(S(=O)(=O)Nc2cnccc2C(=O)Nc2nc(-c3ccccc3)cs2)s1	21.4
COc1cc(C(=O)NC2CCCc3c2[nH]c2c(Cl)cccc32)cc(OC)c1OC (stereo unspecified)	593
COc1cccc(CNc2ccc(S(=O)(=O)Nc3ncc(-c4ccccc4)s3)cc2)c1O	36.6
CC[C@H](C)[C@@H]([C@@H](CC(=O)N1CCC[C@H]1[C@H](OC)[C@@H](C)C(=O)N[C@@H](Cc1ccccc1)c1nccs1)OC)N(C)C(=O)[C@@H](NC(=O)[C@H](C(C)C)N(C)C)C(C)C	341
COc1ccc(C2(C(=O)N3CCC(n4cc(-c5nc(C)no5)nn4)CC3)CC2)cc1	34.9
Cc1ccc(S(=O)(=O)Nc2cnccc2C(=O)Nc2nc(-c3ccccc3Cl)cs2)cc1	46
Cc1ccc(-n2nc3c(N4CCCC(C(=O)NCc5ccccc5C)C4)nnc(C)c3c2C)cc1 (stereo unspecified)	173
CCCN(C(=O)c1sc2nc3n(c(=O)c2c1C)CCCC3)c1ccccc1C	> 1000
Cc1cccc(-n2cnc3cc(C(=O)N4CCCCCC4)ccc32)c1	> 1000
CC[C@H]1CN(C)[C@H]2Cc3c([nH]c4ccccc34)C(=O)C[C@H]1[C@H]2C(=O)OC	490
Cc1cc(C)nc(NS(=O)(=O)c2ccc(NC(=S)NC(=O)COc3ccc(Br)cc3Cl)cc2)n1	457
CC(=O)Nc1cccc(-c2nc(-c3c(C)noc3C)cc3c2cc(-c2ccccc2)n3C)c1	455
Cc1ccc(C)c(NC2=C(c3ccc(C(F)(F)F)cc3)C(=O)c3ccccc32)c1	< 1
Cc1ccccc1C(=O)N1CCc2cc(N3CCC(NC(=O)Cc4ccccc4)C3)ccc21 (stereo unspecified)	783
CCOC(=O)C1CCN(C(=O)C2(NC(=O)Nc3ccccc3Cl)CCC2)CC1	266
NC(=O)C1CCN(c2ncc(-c3ccc4c(c3)OCCO4)s2)CC1	710

SMILES	Papp [×10⁻⁶ cm/s]
Cc1ccc(-c2cc(C(=O)Nc3ccc(S(=O)(=O)N(C)C)cc3)c3ccccc3n2)cc1C	23
O=C(CCc1ccccc1)NC(c1cccs1)c1cc(Cl)c2cccnc2c1O (stereo unspecified)	20.9
Cc1cccc(-n2cnc3cc(C(=O)N4CCCC(C(C)C)C4)ccc32)c1 (stereo unspecified)	> 1000
Cc1nnn(C)c1-c1cnc2c3ccc(C(C)(C)O)cc3n([C@H](c3ccccc3)C3CCOCC3)c2c1	746
O=C(Nc1ccc(Cl)cc1)Nc1ccc(Cl)c(Cl)c1	240
Cn1cc(C2=C(c3cn(CCCSC(=N)N)c4ccccc34)C(=O)NC2=O)c2ccccc21	11.1
COc1ccc(OC)c(CNc2ncnc3onc(C)c23)c1	366
CCCNC(=O)c1ccc2c(c1)N=C(C)c1c(C)ccc(C)c1S2	> 1000
Clc1ccc2ncc(-c3cccc(NC4CCNC4)n3)n2c1 (stereo unspecified)	332
O=C1NCc2cc(-c3cc4c(ccn4Cc4ccncc4)c(N4CCOCC4)n3)ccc21	189
CCN(c1ccccc1)S(=O)(=O)c1c(C)nc2scc(C)n2c1=O	615
CCOc1ccc(CCNC(=O)c2cc3sccc3n2CCN(C)C)cc1OCC	> 1000
CS(=O)(=O)c1ccc(-c2cnc(NCc3ccco3)n3cnnc23)cc1	16.7
CCc1cccc(CC)c1-n1c(C=C(C)C)c(C(=O)N2CCNCC2)cc(-c2nc(-c3ccc(C(F)(F)F)cc3)cs2)c1=O	33.8
COc1ccc(NC(=O)c2cccnc2)cc1S(=O)(=O)Nc1ccc(Br)cc1	514
O=C(NCCO)c1cccc(-c2cc(Nc3ccc(OC(F)(F)F)cc3)ncn2)c1	472
O=C(CCCN1CCC2(CC1)C(=O)N(Cc1cccc(F)c1)CN2c1ccccc1)c1ccc(F)cc1	21
c1ccc2[nH]c(Nc3nc(-c4ccncc4)nc4ccccc34)nc2c1	> 1000
CCCc1oc2ccc(NS(=O)(=O)c3ccc(OC)cc3)cc2c1C(=O)OCC	< 1
CCOC(=O)C1CCN(c2ncc(-c3ccc4c(c3)OCCCO4)s2)CC1	> 1000
CCCCOc1ccc(C(=O)N2CCC(c3n[nH]c(=O)n3-c3ccc(C)cc3)CC2)cc1	892
COc1ccc(CNC(=O)c2cnc3ccccc3n2)cc1	> 1000

SMILES	Papp [×10⁻⁶ cm/s]
COc1cccc(CNc2ccc(S(=O)(=O)Nc3cccnc3)cc2)c1O	632
COc1ccc(-c2cc(-c3cccc4[nH]ncc34)cn3cncc23)cn1	< 1
Nc1ncc(S(=O)(=O)N2CCN(c3ccccc3)CC2)cn1	13.5
COc1ccc(S(=O)(=O)Nc2cnccc2C(=O)Nc2nc(-c3ccccc3)cs2)cc1	675
COc1ccc(-n2nc(C3CCCN(C(=O)Cc4ccc(F)cc4)C3)[nH]c2=O)cc1 (stereo unspecified)	851
O=C(Nc1ccc(Cl)cc1)C(NS(=O)(=O)c1cccs1)c1ccccc1 (stereo unspecified)	< 1
CC(C)(C)c1ccc(S(=O)(=O)N2CCC(c3ccncc3)CC2)cc1	320
Cc1cnc(CNc2nc(-c3ccccc3Cl)nc3ccccc23)cn1	> 1000
COc1cccc(CNc2ccc(S(=O)(=O)Nc3cccc4ccncc34)cc2)c1O	> 1000
CCCN(CCC)CCc1cccc2c1CC(=O)N2	179
CN1CCN(C2=Nc3cc(Cl)ccc3Nc3ccccc32)CC1	> 1000
O=C1Nc2cc(Cl)ccc2/C1=C\c1cc(Cl)c(O)c(Cl)c1	78
Fc1cnc(-c2ccccc2C(F)F)nc1NCc1ccc(-c2cccnc2)cc1	> 1000
O=C1Nc2ccccc2/C1=C/c1cccc(C(=O)O)c1	1.2
CCOC(=O)c1nn(-c2ccc(OC)cc2)c(=O)c2c(N)scc12	187
COc1ccccc1NS(=O)(=O)c1cccc(NC(=O)c2[nH]c(C)c(C(C)=O)c2C)c1	197
Fc1ccc(Nc2nc(Nc3ccncc3)nc3ccccc23)cc1F	40.4
COc1cc([C@@H](CC(=O)O)c2ccc(C)c(CN3C[C@@H](C)Oc4ccccc4S3(=O)=O)c2)cc2nnn(C)c12	2.9
COc1ccccc1NC(=O)C1=C(C)Nc2c(C(=O)Nc3cccc(C)c3)cnn2C1c1ccccc1Cl (stereo unspecified)	751
CCOc1cc(CCNC(=O)c2cc3sccc3n2Cc2ccccc2)cc(F)c1OCC	< 1
CCOc1ccc(N2C(=O)c3n[nH]c(-c4cccs4)c3C2c2cccc(F)c2)cc1 (stereo unspecified)	82.4
Nc1cc(CN2C(=O)c3ccccc3C2=O)cc(Cl)c1O	352

SMILES	Papp [×10⁻⁶ cm/s]
CCCn1cnc2cc(NCc3ccc(OC)cc3OC)ccc21	> 1000
O=C(CNC(=O)c1cnccn1)NC1CCCc2c1[nH]c1ccc(Cl)cc21 (stereo unspecified)	> 1000
Cc1cccc(NCc2ccc(O)c3ncccc23)c1	< 1
O=C(c1ccc2c(c1)ncn2-c1ccc(C(F)(F)F)cc1)N1CCCCC1	> 1000
Cn1cc(Nc2cnccc2C(=O)O)c2cccnc21	3.2
COc1ccc(-n2nc(C3CCN(C(=O)C4CC4)CC3)[nH]c2=O)cc1	148
CN(C)S(=O)(=O)c1cccc(NC(=O)c2ccc[nH]2)c1	179
O=[S+]([O-])(Nc1nccs1)c1ccc(NCc2cc(Cl)cc(Br)c2O)cc1	265
COCCCOc1ccnc(CS(=O)c2nc3ccccc3[nH]2)c1C (stereo unspecified)	212
O=C(Nc1ccc(S(=O)(=O)Nc2nccs2)cc1)c1cccnc1	< 1
CC[C@@]1(O)C(=O)OCc2c1cc1n(c2=O)Cc2cc3ccccc3nc2-1	68.3
CC1=C(C(=O)Nc2ccccc2C)C(c2ccccc2Br)N=C(Nc2nc3ccccc3o2)N1 (stereo unspecified)	390
Cc1ccc(S(=O)(=O)NC2CCCCC2)cc1	206
COc1ccc(NC(=O)c2[nH]c(C)c(C(C)=O)c2C)cc1S(=O)(=O)N1CCCCCC1	989
COc1ccc(-c2nc3ccc(C4=NNC(=O)CC4C)cc3[nH]2)cc1 (stereo unspecified)	228
CC(=O)Nc1cc(-c2nc(Nc3ccc(F)c(F)c3)c3ccccc3n2)ccn1	438
O=C(NC(c1ccccc1)c1cc(Cl)c2cccnc2c1O)c1cccnc1 (stereo unspecified)	51.6
CN1CCN(C(=O)Cc2c[nH]c3ncc(-c4ccccc4Oc4ccccc4)cc23)CC1	> 1000
